The subject of data set [1] is S. aureus (ATCC 29213). In words: MIC measurement (adapted CLSI M07-A11 broth dilution). It counts as cell-based. The note with it: for MIC: S. aureus (ATCC 29213), MHB, overnight 37° C. As for the experimental part: (§1) MIC measurements were performed using an adapted method described in the Clinical and Laboratory Standards Institute (CLSI) guidelines M07-A11. Compounds were serial diluted two-fold in Mueller Hinton Broth (MHB) in 96 well plates. A positive growth control and a negative growth control were also included in the well plates.
(§2) A colony suspension of S. aureus (ATCC 29213), P. aeruginosa (ATCC 15442) and C. albican was prepared by taking several colonies from a fresh agar plate and suspending them in MHB. The suspension was adjusted to 0.5 McFarland (~1 × 10^8 CFU/mL) and diluted 1:100. The inoculum was then added to wells at a final concentration of […]. Plates were incubated overnight at 37° C. The following day, MICs were determined as the lowest concentration that no growth could be visually observed.
(§3) An 80 mg/ml solution of T-EDTA was prepared by dissolving T-EDTA (99% pure, Acros Organics) in sterile distilled water. The pH of this solution was measured at 10.5, using a pH electrode. A 16 mg/ml solution of DTPA was prepared by dissolving DTPA (98%+ Acros Organics) in distilled water, and adjusting pH to 10.5 using the addition of sodium hydroxide.

Data set [2] deals with P. aeruginosa (ATCC 15442). Described as above. It counts as cell-based. The note with it: for MIC: P. aeruginosa (ATCC 15442), MHB, overnight 37° C. As for the experimental part:
as §1, §2, §3

Data set [3] is described as follows: Concentration studies: loading of complex in aqueous solution. It counts as physicochemical. As for the experimental part:
3.29 g silver nitrate was dissolved in 4.71 g demineralised water to produce a silver nitrate solution. 2.58 g copper sulphate pentahydrate was dissolved in 16.09 g demineralised water to produce a copper sulphate solution. Silver nitrate solution was added to the DPTA solution with vigorous stirring. […] Copper sulphate solution was added to the white dispersion.
2.39 g silver nitrate was dissolved in 4.61 g demineralised water to produce a silver nitrate solution. 2.08 g zinc sulphate monohydrate was dissolved in 15.92 g demineralised water to produce a zinc sulphate solution. […] Zinc sulphate solution was added to the white dispersion.
0.24 g silver nitrate (AgNO3) was dissolved in 3.26 g demineralised water to produce a silver nitrate solution. 0.66 g aluminium sulphate hexadecahydrate (Al2H32O28S3) was dissolved in 8.34 g demineralised water to produce an aluminium sulphate solution. […] Aluminium sulphate solution was added to the white dispersion.
Silver nitrate solution was formed by dissolving 0.24 g silver nitrate (AgNO3) in 3.26 g demineralised water.

In data set [4] the test system is C. albican (ATCC 10231). Briefly: MIC measurement (adapted CLSI M07-A11 broth dilution). It counts as cell-based. The note with it: MHB, overnight 37° C. The method, then:
as §1, §2

The mark [5] stands for this setting: clear aqueous solution as prepared.

The text below walks through data of patent publication US20230312610A1, “Anti-Microbial Compositions” (5D HEALTH PROTECTION GROUP LTD, priority 2020, published 2023).

In brackets after ≈: the same amount, converted by molar mass.

Consider `O=C([O-])CN(CCN(CC(=O)[O-])CC(=O)[O-])CC(=O)[O-].[Ag+].[Ag+].[Cu+2]` [Ag2Cu(EDTA), reference compound], for which the MIC in data set [1] worked out at 98 µg/mL; in data set [2], 6 µg/mL.

In the case of Ag3Cu(DTPA) [Ag3Cu(DPTA)], in data set [3] (clear aqueous solution of the complex as prepared), the “total soluble solids content of the solution” value was found to be 22.5 % w/w. Also, the figures for the minimum inhibitory concentration (MIC) in data set [1] and in data set [2] were 6 µg/mL and 1.6 µg/mL, respectively. Moreover, the “increase in potency (MIC) versus prior art compound Ag2Cu(EDTA)” value in data set [1] (S. aureus, versus Ag2Cu(EDTA)) was “approximately 16 fold”; in data set [2] (P. aeruginosa, versus Ag2Cu(EDTA)), “approximately 4 fold”.

Turning to `O=C([O-])CN(CCN(CC(=O)[O-])CC(=O)[O-])CCN(CC(=O)[O-])CC(=O)[O-].[Ag+].[Ag+].[Al+3]` [Ag2Al(DTPA)], the MIC in data set [4] was 530 µg/mL; in data set [1], 370 µg/mL; in data set [2], 450 µg/mL. In addition, the “theoretical concentration of the complex in solution” value in data set [3] (setting [5]) worked out at 2.9%.

For `O=C([O-])CN(CCN(CC(=O)[O-])CC(=O)[O-])CCN(CC(=O)[O-])CC(=O)[O-].[Ag+].[Ag+].[Bi+3]` [Ag2Bi(DTPA), Ag2Bi(DPTA)], the MIC in data set [4] turned out to be 11 µg/mL; in data set [1], 190 µg/mL; in data set [2], 94 µg/mL. For the same compound, the “theoretical concentration of the complex in solution” value in data set [3] (setting [5]) was found to be 0.02 mol/kg. For the same compound, in data set [3] (setting [5]), the “theoretical total solids concentration” value is 9.7%.

For `O=C(O)CN(CCN(CC(=O)O)CC(=O)O)CCN(CC(=O)O)CC(=O)O` [DTPA, diethylenetriaminepentaacetic acid, reference compound], the figures for the minimal inhibitory concentration (MIC) in data set [1] and in data set [2] were 1000 µg/mL (≈ 2.54 mM) and 2000 µg/mL (≈ 5.08 mM), respectively. In addition, the “increase in potency (MIC) compared to uncomplexed T-EDTA” value is on record as 1.25 fold in data set [1] (S. aureus, versus uncomplexed T-EDTA) and 2.5 fold in data set [2] (P. aeruginosa, versus uncomplexed T-EDTA).
